Patent US10294234B2, “HIV inhibitor compounds” (priority 2017, dated 2019)
Like-named read-outs stand apart in the source and are kept apart here.

Columns and labels:
[1] = tested on: HIV-1 (IIIB) in MT-4 cells; assay: MT-4 HIV assay; assay type: cell-based; conditions: Human immunodeficiency virus 1, MT4, 120 h
How it was run: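 Antiviral activity was read by Cell Titer Glo after a 5-day, 37 °C culture of MT-4 cells pre-infected with a 1:250 dilution of HIV-1 (IIIB). Compounds were tested as threefold dilution series in complete RPMI. Controls were no drug, mock infection and 5 uM AZT.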

[2] = Method: Liver Microsomal Stability Protocol
Test compounds and one control compound (verapamil) were tested in 3 different species in duplicate sets.
Test compound concentration: 1 uM; Protein concentration: 0.5 mg/mL (for dog, rat, and human liver microsomes); Cofactor: NADPH-Regenerating system (NRS) solution; Time-points: 2, 12, 25, 45, and 65 minutes.
Reaction composition (in each incubation well) contains:
After plates were vortexed, they were centrifuged for 30 minutes to remove proteins. About 100 μL supernatant was removed to a new plate and diluted with 150 μL water. About 20 μL of the mixture was injected into LC/MS/MS system to monitor the compound's response. In vitro measured t1/2 was used to calculate Clint values.

[3] = human liver microsomes 0.5 mg/mL, 1 uM compound, NADPH
[4] = rat liver microsomes 0.5 mg/mL, 1 uM compound, NADPH
[5] = HIV-1 (IIIB), MT-4 cells, 5 days, Cell Titer Glo, read-out: EC50

Row | Compound | EC50 [1] | Human Pred Cl. [2, 3] | Rat. Pred. Cl. [2, 4] | EC50 [1, 5] | Dog. Pred. Cl. ([2]; dog, microsomes) | Human Pred Cl. ([2]; human, microsomes) | Rat. Pred. Cl. ([2]; rat, microsomes)
1 | COC(=O)N[C@H](C(=O)N[C@@H](Cc1ccc(C#Cc2ccc(N3CCN(C)C(=O)C3)nc2)cc1)[C@@H](O)CN(Cc1c(F)cc(-c2ccn(C(F)F)n2)cc1F)NC(=O)[C@@H](NC(=O)OC)C(C)(C)C(F)(F)F)C(C)(C)C(F)(F)F [Example 81, Methyl ((5S,8S,9S,14S)-11-(4-(1-(difluoromethyl)-1H-pyrazol-3-yl)-2,6-difluorobenzyl)-16,16,16-trifluoro-9-hydroxy-15,15-dimethyl-8-(4-((6-(4-methyl-3-oxopiperazin-1-yl)pyridin-3-yl)ethynyl)benzyl)-3,6,13-trioxo-5-(1,1,1-trifluoro-2-methylpropan-2-yl)-2-oxa-4,7,11,12-tetraazahexadecan-14-yl)carbamate] | 4.39 nM | <0.11 L/H/kg | 0.39 L/H/kg | – | – | – | –
2 | CC(C)([C@H](NC(=O)C1CC1)C(=O)N[C@@H](Cc1ccc(-c2cnn(C(F)F)c2)cc1)[C@@H](O)CN(Cc1c(F)cc(-c2cnn(C(F)F)c2)cc1F)NC(=O)[C@@H](NC(=O)C1CC1)C(C)(C)C(F)(F)F)C(F)(F)F [Example 214, N—((S)-1-(2-((2S,3S)-3-((S)-2-(cyclopropanecarboxamido)-4,4,4-trifluoro-3,3-dimethylbutanamido)-4-(4-(1-(difluoromethyl)-1H-pyrazol-4-yl)phenyl)-2-hydroxybutyl)-2-(4-(1-(difluoromethyl)-1H-pyrazol-4-yl)-2,6-difluorobenzyl)hydrazinyl)-4,4,4-trifluoro-3,3-dimethyl-1-oxobutan-2-yl)cyclopropanecarboxamide] | – | <0.11 L/H/kg | <0.18 L/H/kg | 12.3 nM | – | – | –
3 | COC(=O)N[C@H](C(=O)NN(Cc1c(F)cc(-c2ccn(C(F)F)n2)cc1F)C[C@H](O)[C@H](Cc1ccc(-c2cnc(N3CC4CCC(C3)N4C3COC3)nc2)cc1)NC(=O)[C@@H](NC(=O)OC)C(C)(C)C(F)(F)F)C(C)(C)C [Example 192, methyl ((5S,8S,9S,14S)-11-(4-(1-(difluoromethyl)-1H-pyrazol-3-yl)-2,6-difluorobenzyl)-9-hydroxy-15,15-dimethyl-8-(4-(2-(8-(oxetan-3-yl)-3,8-diazabicyclo[3.2.1]octan-3-yl)pyrimidin-5-yl)benzyl)-3,6,13-trioxo-5-(1,1,1-trifluoro-2-methylpropan-2-yl)-2-oxa-4,7,11,12-tetraazahexadecan-14-yl)carbamate] | – | – | – | 2.89 nM | 1.04 L/H/kg | 0.22 L/H/kg | 0.36 L/H/kg
4 | COC(=O)N[C@H](C(=O)N[C@@H](Cc1ccc(C#Cc2ccc(N3C[C@@H]4C[C@H]3CN4C3COC3)nc2)cc1)[C@@H](O)CN(Cc1c(F)cc(-c2ccn(C(F)F)n2)cc1F)NC(=O)[C@@H](NC(=O)OC)C(C)(C)C(F)(F)F)C(C)(C)C(F)(F)F [Example 174, Methyl ((5S,8S,9S,14S)-11-(4-(1-(difluoromethyl)-1H-pyrazol-3-yl)-2,6-difluorobenzyl)-16,16,16-trifluoro-9-hydroxy-15,15-dimethyl-8-(4-((6-((1S,4S)-5-(oxetan-3-yl)-2,5-diazabicyclo[2.2.1]heptan-2-yl)pyridin-3-yl)ethynyl)benzyl)-3,6,13-trioxo-5-(1,1,1-trifluoro-2-methylpropan-2-yl)-2-oxa-4,7,11,12-tetraazahexadecan-14-yl)carbamate] | – | 0.18 L/H/kg | 0.69 L/H/kg | 2.33 nM | – | – | –
5 | COC(=O)N[C@H](C(=O)NN(Cc1ccc(-c2ccn(C(F)F)n2)cc1)C[C@H](O)[C@H](Cc1ccc(C#Cc2ccc(N3CC4CCC(C3)N4C3COC3)nc2)cc1)NC(=O)[C@@H](NC(=O)OC)C(C)(C)C(F)(F)F)C(C)(C)C [Example 85, Methyl ((5S,8S,9S,14S)-11-(4-(1-(difluoromethyl)-1H-pyrazol-3-yl)benzyl)-9-hydroxy-15,15-dimethyl-8-(4-((6-(8-(oxetan-3-yl)-3,8-diazabicyclo[3.2.1]octan-3-yl)pyridin-3-yl)ethynyl)benzyl)-3,6,13-trioxo-5-(1,1,1-trifluoro-2-methylpropan-2-yl)-2-oxa-4,7,11,12-tetraazahexadecan-14-yl)carbamate] | – | – | – | 3.78 nM | – | 0.13 L/H/kg | 0.19 L/H/kg
6 | COC(=O)N[C@H](C(=O)N[C@@H](Cc1ccc(C#Cc2ccc(N3CC4CCC(C3)O4)nc2)cc1)[C@@H](O)CN(Cc1c(F)cc(-c2cnn(C(F)F)c2)cc1F)NC(=O)[C@@H](NC(=O)OC)C(C)(C)C(F)(F)F)C(C)(C)C(F)(F)F [Example 68, Methyl ((5S,8S,9S,14S)-8-(4-((6-(8-oxa-3-azabicyclo[3.2.1]octan-3-yl)pyridin-3-yl)ethynyl)benzyl)-11-(4-(1-(difluoromethyl)-1H-pyrazol-4-yl)-2,6-difluorobenzyl)-16,16,16-trifluoro-9-hydroxy-15,15-dimethyl-3,6,13-trioxo-5-(1,1,1-trifluoro-2-methylpropan-2-yl)-2-oxa-4,7,11,12-tetraazahexadecan-14-yl)carbamate] | – | <0.11 L/H/kg | 0.61 L/H/kg | 7.25 nM | – | – | –
7 | COC(=O)N[C@H](C(=O)N[C@@H](Cc1ccc(-c2ccc(N3CC4CCC(C3)N4C3COC3)nc2)cc1)[C@@H](O)CN(Cc1c(F)cc(-c2ccc(N3CC4CCC(C3)N4C3COC3)nc2)cc1F)NC(=O)[C@@H](NC(=O)OC)C(C)(C)C(F)(F)F)C(C)(C)C(F)(F)F [Example 203, Methyl ((5S,8S,9S,14S)-11-(2,6-difluoro-4-(6-(8-(oxetan-3-yl)-3,8-diazabicyclo [3.2.1]octan-3-yl)pyridin-3-yl)benzyl)-16,16,16-trifluoro-9-hydroxy-15,15-dimethyl-8-(4-(6-(8-(oxetan-3-yl)-3,8-diazabicyclo[3.2.1]octan-3-yl)pyridin-3-yl)benzyl)-3,6,13-trioxo-5-(1,1,1-trifluoro-2-methylpropan-2-yl)-2-oxa-4,7,11,12-tetraazahexadecan-14-yl)carbamate] | – | – | – | 5.02 nM | – | 0.32 L/H/kg | 1.09 L/H/kg
8 | COCCN1C2CCC1CN(c1ccc(C#Cc3ccc(C[C@H](NC(=O)[C@@H](NC(=O)OC)C(C)(C)C(F)(F)F)[C@@H](O)CN(Cc4c(F)cc(-c5ccn(C(F)F)n5)cc4F)NC(=O)[C@@H](NC(=O)OC)C(C)(C)C(F)(F)F)cc3)cn1)C2 [Example 124, Methyl ((5S,8S,9S,14S)-11-(4-(1-(difluoromethyl)-1H-pyrazol-3-yl)-2,6-difluorobenzyl)-16,16,16-trifluoro-9-hydroxy-8-(4-((6-(8-(2-methoxyethyl)-3,8-diazabicyclo[3.2.1]octan-3-yl)pyridin-3-yl)ethynyl)benzyl)-15,15-dimethyl-3,6,13-trioxo-5-(1,1,1-trifluoro-2-methylpropan-2-yl)-2-oxa-4,7,11,12-tetraazahexadecan-14-yl)carbamate] | – | – | – | 6.32 nM | – | <0.11 L/H/kg | 0.5 L/H/kg
